# Test results published in patent publication US11801240B2, “Combination therapies and uses thereof” (Tesaro, Inc., priority 2017, dated 2023).
# Experiments:
# ovarian PDX model OVC134 = assay: Niraparib and cabozantinib combination in ovarian PDX model OVC134; format: in vivo, mouse
# [1] = tested on: A2780 (BRCA wt, HRD−) ovarian cancer cell line-derived xenograft; assay: Niraparib and cabozantinib combination in ovarian cancer cell line-derived xenograft model A2780; format: in vivo, mouse; conditions: A2780, Balb/C nude female mice, 2 weeks; niraparib 60 mg/kg po qd, cabozantinib 30 mg/kg po qd; end of treatment
# TNBC PDX model MAXF 857 = assay: Niraparib+bevacizumab and niraparib+cabozantinib combinations in TNBC PDX model MAXF 857; format: in vivo, mouse; conditions: for Tumor growth inhibition (TGI): MAXF 857, NMRI nude female mice, 5 weeks, bevacizumab 20 mg/kg iv qw, cabozantinib 30 mg/kg po qd, end of treatment
# [2] = tested on: A2780 (BRCA wt, HRD−) ovarian cancer cell line-derived xenograft; assay: Niraparib and bevacizumab combination in ovarian cancer cell line-derived xenograft model A2780; format: in vivo, mouse; conditions: A2780, CB-17 SCID female mice, 2 weeks; niraparib 60 mg/kg po qd, bevacizumab 10 mg/kg iv qw; end of treatment
Molecule,"Tumor growth inhibition (TGI) (ovarian PDX model OVC134; OVC134, Balb/C nude female mice, 7 weeks, cabozantinib 30 mg/kg po qd, end of treatment)",Tumor growth inhibition (TGI) [1],Tumor growth inhibition (TGI) (TNBC PDX model MAXF 857),"Sensitivity of the model to monotherapy (anti-tumor activity) (ovarian PDX model OVC134; ovarian PDX model OVC134, 7 weeks)","Tumor growth inhibition (TGI) (TNBC PDX model MAXF MX1; MAXF MX1, NMRI nude female mice, 5 weeks, niraparib 50 mg/kg po qd, end of treatment)","Sensitivity of the model to monotherapy (anti-tumor activity) (TNBC PDX model MAXF MX1; TNBC PDX model MAXF MX1, 5 weeks)",Tumor growth inhibition (TGI) [2],"Sensitivity of the model to monotherapy (anti-tumor activity) (TNBC PDX model MAXF 857; TNBC PDX model MAXF 857, 5 weeks)"
COc1cc2nccc(Oc3ccc(NC(=O)C4(C(=O)Nc5ccc(F)cc5)CC4)cc3)c2cc1OC [cabozantinib],83%,51%,65%,–,–,–,–,–
"NC(=O)c1cccc2cn(-c3ccc([C@@H]4CCCNC4)cc3)nc12 [niraparib, (3S)-3-[4-{7-(aminocarbonyl)-2H-indazol-2-yl}phenyl]piperidine]",–,18%,–,very sensitive,99%,very sensitive,< 40%,–
bevacizumab: recombinant humanized monoclonal antibody that can block angiogenesis and inhibit vascular endothelial growth factor A (VEGF-A),–,–,76%,–,–,–,55%,very sensitive
